Source: ChEMBL document CHEMBL3877269, “Structure-activity relationships and optimization of acyclic acylphloroglucinol analogues as novel antimicrobial agents” (Eur J Med Chem, 2017)
Converted amounts (≈) assume the structure as drawn. The source made the active and inactive calls. The calls are words filed in the database; no cut-off is given here.

Assays:
Staphylococcus aureus [1] = assay: Antibacterial activity against methicillin-resistant Staphylococcus aureus JCSC 2172 after 8 to 12 hrs by resazurin dye based microdilution method; assay type: functional
Staphylococcus aureus [2] = assay: Antibacterial activity against drug-susceptible Staphylococcus aureus ATCC 6538 after 8 to 12 hrs by resazurin dye based microdilution method; assay type: functional
[3] = Selectivity ratio of IC50 for mouse RAW264.7 cells to MIC for methicillin-resistant Staphylococcus aureus JCSC 2172; assay type: ADME
Bacillus subtilis = assay: Antibacterial activity against Bacillus subtilis ATCC 11774 after 8 to 12 hrs by resazurin dye based microdilution method; assay type: functional
Bacillus thuringiensis = assay: Antibacterial activity against Bacillus thuringiensis ATCC 10792 after 8 to 12 hrs by resazurin dye based microdilution method; assay type: functional
Escherichia coli = assay: Antibacterial activity against Escherichia coli ATCC 8739 after 8 to 12 hrs by resazurin dye based microdilution method; assay type: functional
Bacillus cereus = assay: Antibacterial activity against Bacillus cereus ATCC 10876 after 8 to 12 hrs by resazurin dye based microdilution method; assay type: functional
[4] = Cytotoxicity against mouse RAW264.7 cells assessed as reduction in cell viability after 24 hrs by MTT assay; assay type: toxicity
Staphylococcus aureus [5] = assay: Bacteriostatic activity against methicillin-resistant Staphylococcus aureus JCSC 2172 at 0.5 to 2 times MIC up to 10 hrs by time-kill assay; assay type: functional
Staphylococcus aureus [6] = assay: Bactericidal activity against methicillin-resistant Staphylococcus aureus JCSC 2172 assessed as 3-log reduction in bacterial colony at 4 times MIC up to 4 hrs by time-kill assay; assay type: functional
Staphylococcus aureus [7] = assay: Induction of cell lysis in methicillin-resistant Staphylococcus aureus JCSC 2172 at 8 times MIC after 4 hrs by osmium tetroxide staining based scanning electron microscopic method; assay type: functional
Staphylococcus aureus [8] = assay: Bactericidal activity against methicillin-resistant Staphylococcus aureus JCSC 2172 assessed induction of membrane potential dissipation at 0.5 to 8 times MIC by DiSC3-5 probe based fluorescence assay; assay type: functional
Staphylococcus aureus [9] = assay: Bactericidal activity against methicillin-resistant Staphylococcus aureus JCSC 2172 assessed as reduction in CFU count at 4 times MIC after 24 hrs by time-kill assay; assay type: functional; parameters: scale not given: the % may be the effect or the level left
Staphylococcus aureus [10] = assay: Disruption of cytoplasmic membrane potential in methicillin-resistant Staphylococcus aureus JCSC 2172 at 8 times MIC after 4 hrs by SYTOX green dye based fluorescence assay; assay type: functional
Staphylococcus aureus [11] = assay: Potency index, ratio of vancomycin MIC to compound MIC for methicillin-resistant Staphylococcus aureus JCSC 2172; assay type: functional
Staphylococcus aureus [12] = assay: Bactericidal activity against methicillin-resistant Staphylococcus aureus JCSC 2172 assessed as 3-log reduction in bacterial colony at 4 times MIC after 10 hrs by time-kill assay; assay type: functional

Row | Compound | MIC (Staphylococcus aureus [1]) | MIC (Staphylococcus aureus [2]) | MIC (Bacillus subtilis) | MIC (Bacillus thuringiensis) | MIC (Escherichia coli) | MIC (Bacillus cereus) | also measured
1 | CCCCCC(=O)c1c(O)cc(O)c([C@@H](CC(C)C)C2=C(O)C(C)(C)C(=O)C(C)(C)C2=O)c1O | 2 µg/mL (≈ 4.21 µM) | 2 µg/mL (≈ 4.21 µM) |  |  |  |  | 
2 | CC(C)C[C@@H](C1=C(O)C(C)(C)C(=O)C(C)(C)C1=O)c1c(O)cc(O)c(C=O)c1O | > 32 µg/mL | > 32 µg/mL |  |  |  |  | 
3 | CCCCCCCCCCCC(=O)c1c(O)cc(O)c([C@@H](CC(C)C)C2=C(O)C(C)(C)C(=O)C(C)(C)C2=O)c1O | 0.5 µg/mL (≈ 0.895 µM) | 0.5 µg/mL (≈ 0.895 µM) | 0.25 µg/mL (≈ 0.447 µM) | 0.5 µg/mL (≈ 0.895 µM) | > 32 µg/mL | 1 µg/mL (≈ 1.79 µM) | selectivity ratio [3]: 15.8; IC50 at 24 h [4]: 7.9 µg/mL (≈ 14.1 µM)
4 | CCC(=O)c1c(O)cc(O)c([C@@H](CC(C)C)C2=C(O)C(C)(C)C(=O)C(C)(C)C2=O)c1O | 8 µg/mL (≈ 18.5 µM) | 8 µg/mL (≈ 18.5 µM) |  |  |  |  | 
5 | CCCCCCCCC(=O)c1c(O)cc(O)c([C@@H](CC(C)C)C2=C(O)C(C)(C)C(=O)C(C)(C)C2=O)c1O | 0.5 µg/mL (≈ 0.968 µM) | 0.25 µg/mL (≈ 0.484 µM) | 0.25 µg/mL (≈ 0.484 µM) | 0.5 µg/mL (≈ 0.968 µM) | > 32 µg/mL | 0.5 µg/mL (≈ 0.968 µM) | selectivity ratio [3]: 16.4; IC50 at 24 h [4]: 8.2 µg/mL (≈ 15.9 µM)
6 | CC(C)C[C@@H](C1=C(O)C(C)(C)C(=O)C(C)(C)C1=O)c1c(O)cc(O)c(C(=O)C2CCC2)c1O | 16 µg/mL (≈ 34.9 µM) | 16 µg/mL (≈ 34.9 µM) |  |  |  |  | 
7 | CC(C)C[C@@H](C1=C(O)C(C)(C)C(=O)C(C)(C)C1=O)c1c(O)cc(O)c(C(=O)C(C)C)c1O | 16 µg/mL (≈ 35.8 µM) | 16 µg/mL (≈ 35.8 µM) |  |  |  |  | 
8 | CC(C)C[C@@H](C1=C(O)C(C)(C)C(=O)C(C)(C)C1=O)c1c(O)cc(O)c(C(=O)Cc2ccccc2)c1O | 16 µg/mL (≈ 32.4 µM) | 16 µg/mL (≈ 32.4 µM) |  |  |  |  | 
9 | CCCCCCCC(=O)c1c(O)cc(O)c([C@@H](CC(C)C)C2=C(O)C(C)(C)C(=O)C(C)(C)C2=O)c1O | 0.25 µg/mL (≈ 0.497 µM) | 0.25 µg/mL (≈ 0.497 µM) | 0.13 µg/mL (≈ 0.259 µM) | 0.25 µg/mL (≈ 0.497 µM) | > 32 µg/mL | 0.25 µg/mL (≈ 0.497 µM) | selectivity ratio [3]: 20.4; Activity (Staphylococcus aureus [5]): >90%; Activity (Staphylococcus aureus [6]): Active; Activity (Staphylococcus aureus [7]): Active; Activity (Staphylococcus aureus [8]): Active; Activity (Staphylococcus aureus [9]): 99.99%; Activity (Staphylococcus aureus [10]): Active; Ratio (Staphylococcus aureus [11]): 4; IC50 at 24 h [4]: 5.1 µg/mL (≈ 10.1 µM)
10 | CC(=O)c1c(O)cc(O)c([C@@H](CC(C)C)C2=C(O)C(C)(C)C(=O)C(C)(C)C2=O)c1O | 4 µg/mL (≈ 9.56 µM) | 4 µg/mL (≈ 9.56 µM) |  |  |  |  | 
11 | CCCCC(=O)c1c(O)cc(O)c([C@@H](CC(C)C)C2=C(O)C(C)(C)C(=O)C(C)(C)C2=O)c1O | 8 µg/mL (≈ 17.4 µM) | 4 µg/mL (≈ 8.68 µM) |  |  |  |  | 
12 | CN[C@H](CC(C)C)C(=O)N[C@H]1C(=O)N[C@@H](CC(N)=O)C(=O)N[C@H]2C(=O)N[C@H]3C(=O)N[C@H](C(=O)N[C@H](C(=O)O)c4cc(O)cc(O)c4-c4cc3ccc4O)[C@H](O)c3ccc(c(Cl)c3)Oc3cc2cc(c3O[C@@H]2O[C@H](CO)[C@@H](O)[C@H](O)[C@H]2O[C@H]2C[C@](C)(N)[C@H](O)[C@H](C)O2)Oc2ccc(cc2Cl)[C@H]1O [VANCOMYCIN] |  |  | 0.13 µg/mL (≈ 0.0897 µM) | 1 µg/mL (≈ 0.69 µM) | > 32 µg/mL | 0.25 µg/mL (≈ 0.173 µM) | Activity (Staphylococcus aureus [12]): Active
